Drawing on patent US20250340543A1, “GPR84 ANTAGONISTS AND USES THEREOF” (Liminal BioSciences Limited, priority 2021, published 2025), this text covers IC50 and inhibition for 54 compounds.

Some results are limits rather than exact numbers.

GPR84, sequence (Q9NQS5 whole entry): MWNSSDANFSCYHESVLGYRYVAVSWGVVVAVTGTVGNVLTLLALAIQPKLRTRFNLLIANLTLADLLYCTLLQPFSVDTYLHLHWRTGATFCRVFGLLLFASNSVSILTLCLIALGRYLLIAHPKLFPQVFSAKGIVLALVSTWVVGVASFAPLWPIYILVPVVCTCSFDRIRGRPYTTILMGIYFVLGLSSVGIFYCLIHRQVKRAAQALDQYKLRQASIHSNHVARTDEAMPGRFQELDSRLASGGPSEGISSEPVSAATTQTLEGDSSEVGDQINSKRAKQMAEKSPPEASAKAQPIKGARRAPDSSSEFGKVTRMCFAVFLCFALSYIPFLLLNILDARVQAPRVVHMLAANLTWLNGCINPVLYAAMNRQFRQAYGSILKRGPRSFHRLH

For the first experiment, the target named is GPR84 (Homo sapiens (Human), UniProt Q9NQS5). Kind of experiment: Gai biosensor BRET assay (GPR84-mediated activation of Gai, antagonist mode against agonist ZQ-16). The class given is cell-based. To be noted: HEK293 cells, 200 nmol/L GPR84 agonist ZQ-16, read-out: hGPR84 IC50. From the text:
Background—The following assays can be used for determination of GPR84 activation in living HEK293 cells. […] The Gai biosensor consists of a Rluc8-tagged Gαi2 subunit, a GFP10-tagged Gγ2 subunit, and an untagged Gβ1. […] Moreover, signaling functions of GPCRs are tightly regulated by endocytosis, the targeting of receptors to endosomes and their sorting to lysosomes or recycling to the plasma membrane. […] Agonist stimulation of GPR84—Rluc8 leads to trafficking of the receptor to EEs, and ensuing increase of the donor concentration relative to the rGFP-FYVE acceptor anchored in the same cellular compartment, and thus results in an increase in BRET signal.
Plasmids—The cDNA clones for human GPR84 receptor, human Gαi2, Gβ1, and Gγ2 were obtained from the cDNA Resource Center (www.cdna.org). GFP10 (F64L, S147P, S202F and H231L variant of Aequorea victoria Green Fluorescent Protein) gBlocks gene fragments (Integrated DNA Technologies, IA) and linker were inserted in frame at the N-terminus of human Gγ2. Rluc8 (A55T, C124A, S130A, K136R, A143M, M185V, M253L, and S287L variant of the Renilla renformis luciferase) gBlocks gene fragment was inserted with linkers in frame in between residues 91 and 92 of Gαi2 or at the C-terminus of GPR84. The FYVE domain from human endofin (residues Q739 to K806) attached in frame at the C terminus of a humanized Renilla GFP (rGFP), were synthesized as gBlocks gene fragments.
Bioluminescence Resonance Energy Transfer (BRET) Measurement—HEK293 cells were transfected with GPR84—Rluc8 and rGFP-FYVE for the EEs trafficking biosensor or with GPR84, Gαi2—Rluc8, GFP10-Gγ2, and Gβ1 for the Gai biosensor. The following day, transiently transfected cells were seeded in 96-well white clear bottom microplates coated with poly-D-lysine and left in culture for 24 hours. Cells were washed once with Tyrode's buffer (140 mmol/L NaCl, 1 mmol/L CaCl2, 2.7 mmol/L KCl, 0.49 mmol/L MgCl2, 0.37 mmol/L NaH2PO4, 5.6 mmol/L glucose, 12 mmol/L NaHCO3, and 25 mmol/L HEPES, pH 7.5) before performing assays in Tyrode's buffer. Test compounds were incubated with cells for 5 (Gai) or 15 (EEs) minutes at 37° C. before addition of 200 nmol/L of the GPR84 agonist ZQ-16 (2-(Hexylthio)-6-hydroxy-4(3H)-pyrimidinone) for 5 minutes at room temperature (Gai) or 30 minutes at 37° C. (EEs). The Rluc8 substrate coelenterazine 400A (Prolume, Lakeside, AZ) was added at a final concentration of […] and BRET readings were collected using an Infinite M1000 microplate reader (Tecan, Morrisville, NC). BRET^2 readings between Rluc8 and GFP10 or rGFP were collected by sequential integration of the signals detected in the 370 to 450 nm (Rluc8) and 510 to 540 nm (GFP10, rGFP) windows. The BRET signal was calculated as the ratio of light emitted by acceptor (GFP10, rGFP) over the light emitted by donor (Rluc8). The values were corrected to net BRET by subtracting the background BRET signal obtained in cells transfected with Rluc8 constructs alone. Ligand-promoted net BRET values were calculated by subtracting vehicle-induced net BRET from ligand-induced net BRET.
(BRET reads energy transfer from a luciferase to a nearby fluorophore.)
What is called IC50 is the midpoint of a concentration-inhibition curve. As to `O=C(CC1CCOCC1)N1Cc2ccc(C#CC3CC3)cc2C1` [Compound I-180], the IC50 was over 25 µM.

The same experiment, now with this note: compound tested at 5 μM (concentration code C).
What is called inhibition is the relative decrease from the control value, in per cent. In the case of `COc1cc(OCC2COCCO2)cc(-c2ccc(OCC(F)(F)F)cc2)c1` (stereo not shown) [Compound I-166], the inhibition at 5 µM is under 25%. The same measure, in the same setting: with `Cc1ccc(-c2ccc(-c3ccc4oc(=O)n(CC5CCCCO5)c4c3)cc2)cn1` (stereo not shown) [Compound I-168] the figure was under 25%.

Staying with this experiment, now noted: compound tested at 10 μM (concentration code D).
In turn, `Cc1cc(C#CC2CC2)ccc1Cn1c(C)nc(OCC2COCCO2)cc1=O` (stereo not shown) [Compound I-113] returned an inhibition at 10 µM of under 25%. Same read-out and setting: with `Cc1cc(OCC2COCCO2)cc(=O)n1Cc1cccc(OCC(F)(F)F)c1` (stereo not shown) [Compound I-114] the figure was under 25%. The same measure, in the same setting: with `Cc1ccc(C#CC2CC2)cc1Cn1c(C)cc(OCC2COCCO2)cc1=O` (stereo not shown) [Compound I-115] the figure was under 25%.

As to `Cc1cc(OC[C@H]2COCCO2)cc(=O)n1Cc1ccc(N2CC(C)(C)C2)cc1` [Compound I-116], the inhibition at 10 µM was under 25%. Still for that read-out and setting: the value for `Cc1cc(OCC2COCCO2)cc(=O)n1C(C)c1ccc(C#CCNc2ccccc2)cc1` (stereo not shown) [Compound I-117] was under 25%; that for `Cc1cc(OC[C@H]2COc3ncccc3O2)cc(=O)n1Cc1cccc(C#CC2CC2)c1` [Compound I-118] was under 25%. Regarding `O=c1cc(OCC2COCCO2)nc(-c2ccc(C#CC3CC3)cc2)[nH]1` (stereo not shown) [Compound I-119], the inhibition at 10 µM was under 25%.

The compound `Cc1cc(OCc2ccccn2)ccc1-c1cc(OCC2COCCO2)[nH]c(=O)c1` (stereo not shown) [Compound I-120] came in with an inhibition at 10 µM of under 25%. With `Cc1cc(OCc2ccccn2)ccc1-c1cc(OCC2COCCO2)n(C)c(=O)c1` (stereo not shown) [Compound I-121], the inhibition at 10 µM was under 25%. Still for that read-out and setting: with `Cn1c(-c2ccc(C#CC3CC3)cc2)cc(=O)n(C[C@H]2COCCO2)c1=O` [Compound I-122] the figure was under 25%; with `Cc1cc(OCC2COCCO2)cc(=O)n1Cc1ccc(C#CCNCc2ccccc2)cc1` (stereo not shown) [Compound I-123], under 25%. On the same count and under the same terms, the value for `Cc1cc(OCC2COCCO2)cc(=O)n1Cc1cc(C#CC2CC2)ccc1F` (stereo not shown) [Compound I-143] was under 25%; that for `Cc1cc(OC[C@H]2CCCCO2)cc(=O)n1[C@H](C)c1ccc(C#CC2CC2)cc1` [Compound I-145] was over 75%. In turn, `Cc1cc(OCC2COCCO2)cc(=O)n1Cc1cccc(N2CC(C)(C)C2)c1` (stereo not shown) [Compound I-146] returned an inhibition at 10 µM of under 25%.

The compound `Cc1cc(OCC2COCCO2)cc(=O)n1[C@H](C)c1ccc(C#CCNS(=O)(=O)C2CC2)cc1` (stereo partly shown) [Compound I-149] returned an inhibition at 10 µM of under 25%.

The experiment is the same for the next values; noted with them: compound tested at 12.5 μM (concentration code E).
Consider `Cc1ccc(-c2ccc(-c3cc(OCC4CCCCO4)ncn3)cc2)cn1` (stereo not shown) [Compound I-124], for which the inhibition at 12.5 µM was under 25%.

The experiment is the same for the next values; noted with them: compound tested at 15 μM (concentration code F).
The compound `FC(F)(F)COc1ccc(-c2cc(OCC3COCCO3)cc(C3CO3)c2)cc1` (stereo not shown) [Compound I-164] had an inhibition at 15 µM of under 25%.

Still in this experiment, the particulars now being: compound tested at 25 μM (concentration code G).
In the case of `Cc1cc(C#CC2CC2)ccc1-c1cc(OCC2COCCO2)cc(Cl)n1` (stereo not shown) [Compound I-108], the inhibition at 25 µM is under 25%. Same read-out and setting: with `Clc1cc(OCC2COCCO2)cc(-c2ccc(C#CCNc3ccccc3)cc2)n1` (stereo not shown) [Compound I-109] the figure was under 25%; with `COc1nc(OCC2COCCO2)cc(-c2ccc(OCC(F)(F)F)cc2)n1` (stereo not shown) [Compound I-110], under 25%. The compound `FC(F)(F)COc1cccc(-c2cccc(OCC3COCCO3)n2)c1` (stereo not shown) [Compound I-111] displayed an inhibition at 25 µM of under 25%. Still for that read-out and setting: with `COc1cc(OCC2COCCO2)nc(-c2ccc(OCC(F)(F)F)cc2C)c1C` (stereo not shown) [Compound I-112] the figure was under 25%. In turn, `COc1cc(OCC2COCCO2)cc(-c2c(C)cc(OCc3ccccc3)cc2C)n1` (stereo not shown) [Compound I-125] gave an inhibition at 25 µM of under 25%. The same measure, in the same setting: the value for `Cc1cc(C#CC2CC2)ccc1-c1cc(OCC2COCCO2)n(C)c(=O)n1` (stereo not shown) [Compound I-126] was under 25%; that for `C(#CC1CC1)c1ccc(-c2nccc(OCC3CCCCO3)n2)cc1` (stereo not shown) [Compound I-127] was under 25%; that for `C(#CC1CC1)c1ccc(-c2ccnc(OCC3CCCCO3)n2)cc1` (stereo not shown) [Compound I-128] was under 25%.

On to `FC(F)(F)COc1ccc(-c2cccc(OCC3CCCCO3)n2)cc1` (stereo not shown) [Compound I-129], for which the inhibition at 25 µM is under 25%. The same measure, in the same setting: with `COc1cc(OCC2COCCO2)cc(-c2ccc(C#CCNc3ccccc3)cc2)n1` (stereo not shown) [Compound I-130] the figure was under 25%; with `COc1cnc(OCC2COCCO2)c(-c2ccc(OCC(F)(F)F)cc2)c1OC` (stereo not shown) [Compound I-131], under 25%. Same read-out and setting: with `Cc1ccc(-c2ccc(-c3nccc(OCC4CCCCO4)n3)cc2)cn1` (stereo not shown) [Compound I-133] the figure was under 25%; with `COc1cc(OCC2COCCO2)nc(-c2ccc(OCc3ccccn3)cc2C)n1` (stereo not shown) [Compound I-134], under 25%. On the same count and under the same terms, with `C(#CC1CC1)c1ccc(-c2cc(OCC3CCCCO3)cnn2)cc1` (stereo not shown) [Compound I-135] the figure was under 25%; with `Cn1c(OCC2COCCO2)cc(-c2ccc(C#CC3CC3)cc2)nc1=O` (stereo not shown) [Compound I-136], under 25%; with `CN1CCN(c2cc(OCC3COCCO3)nc(=O)n2C)CC1` (stereo not shown) [Compound I-137], under 25%. In the case of `CC(=O)N1CCN(c2cc(OCC3COCCO3)nc(=O)n2C)CC1` (stereo not shown) [Compound I-138], the inhibition at 25 µM is under 25%. Still for that read-out and setting: the value for `Cc1ccc(-c2ccc(-c3nc(OCC4COCCO4)cc(=O)[nH]3)cc2)cn1` (stereo not shown) [Compound I-139, 6-((1,4-dioxan-2-yl)methoxy)-2-(4-(6-methylpyridin-3-yl)phenyl)pyrimidin-4(3H)-one] was under 25%; that for `FC(F)(F)COc1ccc(-c2cc(OCC3COCCO3)cc3c2OCCO3)cc1` (stereo not shown) [Compound I-155] was under 25%.

As for `COc1cc(OCC2COCCO2)cc(-c2ccc(OCC(F)(F)F)cc2)c1OC` (stereo not shown) [Compound I-156], the inhibition at 25 µM was under 25%.

Regarding `COc1cc(OCC2COCCO2)cc(-c2ccc(OCC(F)(F)F)cc2)c1C` (stereo not shown) [Compound I-157], the inhibition at 25 µM is under 25%. Still for that read-out and setting: with `FC(F)(F)COc1ccc(-c2nc(OCC3COCCO3)cc3c2OCCO3)cc1` (stereo not shown) [Compound I-158] the figure was under 25%; with `FC(F)(F)COc1ccc(-c2c(OCC3COCCO3)ncc3c2OCCO3)cc1` (stereo not shown) [Compound I-159], under 25%; with `FC(F)(F)COc1ccc(-c2nc(OCC3COCCO3)cc3c2OCCC3)cc1` (stereo not shown) [Compound I-160], under 25%. Same read-out and setting: with `FC(F)(F)COc1ccc(-c2cc(Cl)cc(OCC3COCCO3)c2)cc1` (stereo not shown) [Compound I-161] the figure was under 25%; with `CN(C)C(=O)c1cc(OCC2COCCO2)cc(-c2ccc(OCC(F)(F)F)cc2)c1` (stereo not shown) [Compound I-162], under 25%. The same measure, in the same setting: the value for `FC(F)(F)COc1ccc(-c2cc(OCC3COCCO3)cc(C3COC3)c2)cc1` (stereo not shown) [Compound I-163] was under 25%; that for `FC(F)(F)COc1ccc(-c2cc(OCC3COCCO3)cc(C(F)(F)F)c2)cc1` (stereo not shown) [Compound I-165] was under 25%; that for `O=c1oc2ccc(-c3ccc(C#CC4CC4)cc3)cc2n1CC1CCCCO1` (stereo not shown) [Compound I-167] was under 25%.

`O=c1oc2ccc(-c3ccc(C#CC4CC4)cc3)cc2n1CC1COCCO1` (stereo not shown) [Compound I-169]: the inhibition at 25 µM is under 25%.

The compound `C(#CC1CC1)c1ccc(Cc2cccc(OCC3COCCO3)c2)cc1` (stereo not shown) [Compound I-174] returned an inhibition at 25 µM of under 25%. Still for that read-out and setting: the value for `Cc1ccc(-c2ccc(Cc3cccc(OCC4COCCO4)c3)cc2)cn1` (stereo not shown) [Compound I-176] was under 25%; that for `O=C(CC1COCCO1)N1Cc2ccc(C#CC3CC3)cc2C1` (stereo not shown) [Compound I-177] was under 25%. Still for that read-out and setting: with `O=C(CC1CCOCC1)N1Cc2ccc(C#CC3CC3)cc2C1` [Compound I-180] the figure was 50 to 75%.
